Experiments:
[1] = target: T1, JAK2 (h) (Homo sapiens, UniProt O60674); experiment: JAK2 (h) kinase assay; format: biochemical
T1 construct: purchased Millipore UK Ltd (contract assay service)
Protocol: (§1) The above assay procedure can be used to determine the IC50 for inhibition and/or the inhibition constant, Ki. The IC50 is defined as the concentration of compound required to reduce the enzyme activity by 50% under the condition of the assay. The IC50 value is estimated by preparing a 10 point curve using a ½ log dilution series (for example, a typical curve may be prepared using the following compound concentrations: 3 μM, 1 μM, 0.3 μM, 0.1 μM, 0.03 μM, 0.01 μM, 0.003 μM, 0.001 μM, 0.0003 μM and 0 μM).
JAK2 (h) is incubated with 8 mM MOPS pH 7.0, 0.2 mM EDTA, 100 μM […], 10 mM MgAcetate and [γ-^33P-ATP] (specific activity approx. 500 cpm/pmol, concentration as required). The reaction is initiated by the addition of the MgATP mix. After incubation for 40 minutes at room temperature, the reaction is stopped by the addition of 3% phosphoric acid solution. 10 μL of the reaction is then spotted onto a P30 filtermat and washed three times for 5 minutes in 75 mM phosphoric acid and once in methanol prior to drying and scintillation counting.
(§2) The kinase assays described herein were performed at Millipore UK Ltd, Dundee Technology Park, Dundee DD2 1SW, UK.

[2] = target: T2, JAK3 (h) (Homo sapiens, UniProt P52333); experiment: JAK3 (h) kinase assay; format: biochemical
T2 construct: purchased Millipore UK Ltd (contract assay service)
T2 sequence (P52333 1-1124): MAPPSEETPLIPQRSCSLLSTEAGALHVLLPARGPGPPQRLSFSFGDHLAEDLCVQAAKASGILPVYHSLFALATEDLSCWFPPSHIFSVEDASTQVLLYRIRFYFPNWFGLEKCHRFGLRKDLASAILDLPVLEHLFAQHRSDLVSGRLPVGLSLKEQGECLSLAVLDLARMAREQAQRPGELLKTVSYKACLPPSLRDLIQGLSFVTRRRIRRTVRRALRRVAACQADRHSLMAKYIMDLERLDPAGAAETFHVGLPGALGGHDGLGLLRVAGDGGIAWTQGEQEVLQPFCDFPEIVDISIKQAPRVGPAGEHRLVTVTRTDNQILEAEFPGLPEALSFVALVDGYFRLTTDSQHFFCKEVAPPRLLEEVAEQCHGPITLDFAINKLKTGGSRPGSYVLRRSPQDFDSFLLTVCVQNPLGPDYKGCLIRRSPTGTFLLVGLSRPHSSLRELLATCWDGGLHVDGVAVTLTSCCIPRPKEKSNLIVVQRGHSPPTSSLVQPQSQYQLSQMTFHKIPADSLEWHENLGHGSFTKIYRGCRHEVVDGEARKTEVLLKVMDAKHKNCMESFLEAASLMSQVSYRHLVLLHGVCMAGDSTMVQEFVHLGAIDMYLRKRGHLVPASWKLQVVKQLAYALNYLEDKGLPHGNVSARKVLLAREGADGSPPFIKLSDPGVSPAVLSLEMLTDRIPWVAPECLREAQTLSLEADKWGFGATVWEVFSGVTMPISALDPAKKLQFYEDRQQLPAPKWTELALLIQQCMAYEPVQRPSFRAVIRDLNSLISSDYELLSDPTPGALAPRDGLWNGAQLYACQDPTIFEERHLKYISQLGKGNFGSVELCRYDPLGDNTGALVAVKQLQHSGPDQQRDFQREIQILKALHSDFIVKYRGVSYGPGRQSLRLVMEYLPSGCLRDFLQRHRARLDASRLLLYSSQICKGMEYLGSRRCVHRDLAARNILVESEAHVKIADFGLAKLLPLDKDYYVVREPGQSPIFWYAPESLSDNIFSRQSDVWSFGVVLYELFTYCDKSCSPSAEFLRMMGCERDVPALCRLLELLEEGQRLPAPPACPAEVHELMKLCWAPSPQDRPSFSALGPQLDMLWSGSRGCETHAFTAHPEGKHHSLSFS
Protocol: Kinase assays can be performed by measurement of incorporation of γ-33P ATP into immobilized myelin basic protein (MBP). High binding white 384 well plates (Greiner) are coated with MBP (Sigma #M-1891) by incubation of 60 μL/well of 20 μg/mL MBP in Tris-buffered saline (TBS; 50 mM Tris pH 8.0, 138 mM NaCl, 2.7 mM KCl) for 24 h at 4° C. Plates are washed 3× with 100 μL TBS. Kinase reactions are carried out in a total volume of 34 μL in kinase buffer (according to the need to make, for example, 5 mM Hepes pH 7.6, 15 mM NaCl, 0.01% bovine gamma globulin (Sigma #I-5506), 10 mM MgCl2, 1 mM DTT, 0.02% TritonX-100). Compound dilutions are performed in DMSO and added to assay wells to a final DMSO concentration of 1%. Each data point is measured in duplicate, and at least two duplicate assays are performed for each individual compound determination. Enzyme is added to final concentrations of 10 nM or 20 nM, for example. A mixture of unlabeled ATP and γ-33P ATP is added to start the reaction (2×10^6 cpm of γ-33P ATP per well (3000 Ci/mmole) and 10 μM unlabeled ATP, typically. The reactions are carried out for 1 h at room temperature with shaking Plates are washed 7× with TBS, followed by the addition of 50 μL/well scintillation fluid (Wallac). Plates are read using a Wallac Trilux counter. This is only one format of such assays; various other formats are possible, as known to one skilled in the art.
as §1
JAK3 (h) is incubated with 8 mM MOPS pH 7.0, 0.2 mM EDTA, 500 μM GGEEEEYFELVKKKK, 10 mM MgAcetate and [γ-^33P-ATP] (specific activity approx. 500 cpm/pmol, concentration as required). The reaction is initiated by the addition of the MgATP mix. After incubation for 40 minutes at room temperature, the reaction is stopped by the addition of 3% phosphoric acid solution. 10 μL of the reaction is then spotted onto a P30 filtermat and washed three times for 5 minutes in 75 mM phosphoric acid and once in methanol prior to drying and scintillation counting.
as §2

T1 sequence (O60674 whole entry): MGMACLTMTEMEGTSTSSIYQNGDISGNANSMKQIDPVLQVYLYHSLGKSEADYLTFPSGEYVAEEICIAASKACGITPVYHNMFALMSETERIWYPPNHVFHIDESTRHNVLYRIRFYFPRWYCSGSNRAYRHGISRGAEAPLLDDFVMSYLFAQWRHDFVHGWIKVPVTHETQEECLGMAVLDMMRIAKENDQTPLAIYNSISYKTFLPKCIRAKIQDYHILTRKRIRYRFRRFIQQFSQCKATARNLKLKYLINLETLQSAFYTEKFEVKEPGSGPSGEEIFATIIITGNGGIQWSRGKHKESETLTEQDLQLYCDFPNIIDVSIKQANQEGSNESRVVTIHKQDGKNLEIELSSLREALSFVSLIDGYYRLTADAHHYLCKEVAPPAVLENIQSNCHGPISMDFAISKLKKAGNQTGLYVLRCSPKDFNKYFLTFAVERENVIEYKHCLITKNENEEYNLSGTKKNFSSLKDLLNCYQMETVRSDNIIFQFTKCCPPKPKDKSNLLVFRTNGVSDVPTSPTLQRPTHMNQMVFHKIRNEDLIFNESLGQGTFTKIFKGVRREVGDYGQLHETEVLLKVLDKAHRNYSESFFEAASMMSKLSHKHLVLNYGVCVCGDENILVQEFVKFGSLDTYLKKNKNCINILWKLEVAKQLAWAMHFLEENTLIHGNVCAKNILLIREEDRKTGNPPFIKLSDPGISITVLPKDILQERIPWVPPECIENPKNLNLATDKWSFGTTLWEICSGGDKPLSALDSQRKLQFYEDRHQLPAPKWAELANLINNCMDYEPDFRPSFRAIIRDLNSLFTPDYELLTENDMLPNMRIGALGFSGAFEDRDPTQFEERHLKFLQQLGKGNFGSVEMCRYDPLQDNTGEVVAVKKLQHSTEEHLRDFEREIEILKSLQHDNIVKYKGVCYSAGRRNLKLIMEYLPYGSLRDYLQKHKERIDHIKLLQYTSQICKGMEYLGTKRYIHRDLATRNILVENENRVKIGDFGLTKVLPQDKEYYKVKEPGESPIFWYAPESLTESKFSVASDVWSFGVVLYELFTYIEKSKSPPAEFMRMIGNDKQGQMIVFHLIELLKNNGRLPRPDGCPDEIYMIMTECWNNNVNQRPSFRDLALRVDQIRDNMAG

Cc1cc(Nc2ncc(Cl)c(NC3CCN(c4ccc(C#N)nn4)CC3)n2)nn1C [Ex. 13, 6-(4-((5-chloro-2-((1,5-dimethyl-1H-pyrazol-3-yl)amino)pyrimidin-4-yl)amino)piperidin-1-yl)pyridazine-3-carbonitrile]
IC50 [1]: 1 nM
IC50 [2]: 73 nM

Cc1nn(C)cc1Nc1ncc(Cl)c(NC2CCN(c3ccc(C#N)nn3)CC2)n1 [Ex. 11, 6-(4-((5-chloro-2-((1,3-dimethyl-1H-pyrazol-4-yl)amino)pyrimidin-4-yl)amino)piperidin-1-yl)pyridazine-3-carbonitrile]
IC50 [1]: 2 nM
IC50 [2]: 263 nM

Cn1cc(Nc2ncc(Cl)c(NC3CCN(c4ccc(C#N)cn4)CC3)n2)cn1 [Ex. 1, 6-(4-((5-chloro-2-((1-methyl-1H-pyrazol-4-yl)amino)pyrimidin-4-yl)amino)piperidin-1-yl)nicotinonitrile]
IC50 [1]: 0.5 nM

CN(c1nc(Nc2cnn(C)c2)ncc1Cl)C1CCN(c2ccc(C#N)cn2)CC1 [Ex. 5, 6-(4-((5-chloro-2-((1-methyl-1H-pyrazol-4-yl)amino)pyrimidin-4-yl) (methyl)amino)piperidin-1-yl)nicotinonitrile]
IC50 [1]: 17 nM
IC50 [2]: 13 nM

Cc1nn(C)cc1Nc1ncc(Cl)c(NC2CCN(c3ccc(C#N)cn3)CC2)n1 [Ex. 10, 6-(4-((5-chloro-2-((1,3-dimethyl-1H-pyrazol-4-yl)amino)pyrimidin-4-yl)amino)piperidin-1-yl)nicotinonitrile]
IC50 [1]: 1 nM
IC50 [2]: 82 nM

Cc1c2ccc(Nc3ncc(Cl)c(NC4CCN(c5ccc(C#N)cn5)CC4)n3)cc2nn1C [Ex. 4]
IC50 [1]: 2 nM
IC50 [2]: 21 nM

Cc1c2ccc(Nc3ncc(Cl)c(NC4CCN(c5ccc(C#N)nn5)CC4)n3)cc2nn1C [Ex. 12, 6-(4-((5-chloro-2-((2,3-dimethyl-2H-indazol-6-yl)amino)pyrimidin-4-yl)amino)piperidin-1-yl)pyridazine-3-carbonitrile]
IC50 [1]: < 0.3 nM
IC50 [2]: 20 nM

Reference: patent US10059689B2, “Substituted heteroaryl compounds and methods of use” (Sunshine Lake Pharma Co., Ltd., priority 2014, dated 2018)
